Literature values in US20040110696A1, “GENE THERAPY SYSTEM AND METHOD USING ALPHA-MSH AND ITS DERIVATIVES” (priority 2003, published 2004).
Where no end group is shown, it is not given here.

Experiments:
fever = settings: for antipyretic potency: relative to the α-MSH(11-13) sequence; for antipyretic activity: rabbit, in vivo
inflammation = settings: for anti-inflammatory activity: in vitro and in vivo

Substance: 8-13 sequence: α-MSH fragment, residues 8-13 (RWGKPV; ends and bridges not checked; UniProt P01189 145-150, looked up, fragment)
- antipyretic potency (fever): greater than that of the 11-13 sequence

Substance: 9-13 sequence: α-MSH fragment, residues 9-13 (WGKPV; ends and bridges not checked; UniProt P01189 146-150, looked up, fragment)
- antipyretic potency (fever): almost devoid of activity

Substance: 10-13 sequence: α-MSH(11-13) with glycine added to form the 10-13 sequence (GKPV; ends and bridges not checked; UniProt P01189 147-150, looked up, fragment)
- antipyretic potency (fever): slightly decreased potency

Substance: Ac-[D-K11]-α-MSH 11-13-NH2
- general potency of α-MSH (11-13) stereochemical analogs (inflammation; relative to L-form tripeptide, kind of activity not given, cited Hiltz 1991 anti-inflammatory activity): same general potency as the L-form

Substance: MEHFRWG [α-MSH sequence (4-10)]
- anti-inflammatory activity (inflammation): little
- antipyretic activity (fever): little

Substance: [Nle^4,D-Phe^7]-α-MSH
- potency in reducing fever (fever; relative to the parent peptide α-MSH): approximately ten times more potent

Substance: lysine-proline-valine [KPV]
- anti-inflammatory activity (inflammation): parallel those of the parent molecule
- antipyretic activity (fever): parallel those of the parent molecule
